Tests used:
Assay type in all cases: functional
Oryctolagus cuniculus = species on record: Oryctolagus cuniculus; test: In vitro vasorelaxant activity in circumferential strips of potassium-depolarized rabbit aorta.
Rattus norvegicus [1] = test: Antihypertensive activity 6-12h after 135 umol/kg p.o. in rats.
Rattus norvegicus [2] = test: Antihypertensive activity 12-18 hr after 135 umol/kg p.o. in rats.
Rattus norvegicus [3] = test: Antihypertensive activity 0-6 hr after 135 umol/kg p.o. in rats.
Rattus norvegicus [4] = species on record: Rattus norvegicus; test: Extent of hydrolysis of C3 acetyl group of 0.4 mM of compound 5 min after exposure by rat liver homogenate
Rattus norvegicus [5] = species on record: Rattus norvegicus; test: Extent of hydrolysis of C3 acetyl group of 0.4 mM of compound 30 min after exposure by rat liver homogenate

SMILES | IC50 (Oryctolagus cuniculus) | Decrease in blood pressure (Rattus norvegicus [1]) | Decrease in blood pressure (Rattus norvegicus [2]) | Decrease in blood pressure (Rattus norvegicus [3]) | Hydrolysis (Rattus norvegicus [4]) | Hydrolysis (Rattus norvegicus [5])
COc1ccc([C@@H]2Cc3c(Cl)cccc3N(C[C@@H]3CCCN3)C(=O)[C@@H]2O)cc1 | 130 nM | 15% | 13% | 19% | – | –
COc1ccc([C@@H]2Cc3cc(OC)ccc3N(C[C@@H]3CCCN3)C(=O)[C@@H]2OC(C)=O)cc1 | 230 nM | 33% | 31% | 39% | 3% | 3%
COc1ccc([C@@H]2Cc3cc(C(F)(F)F)ccc3N(CCN(C)C)C(=O)[C@@H]2OC(C)=O)cc1 | – | – | – | 19% | – | –
COc1ccc([C@@H]2Cc3c(cccc3C(F)(F)F)N(C[C@@H]3CCCN3)C(=O)[C@@H]2OC(C)=O)cc1 | – | – | 38% | 44% | 0% | 0%
COc1ccc([C@@H]2Cc3c(cccc3C(F)(F)F)N(C[C@@H]3CCCN3)C(=O)[C@@H]2O)cc1 | 100 nM | 21% | 21% | 32% | – | –
COc1ccc([C@@H]2Sc3cc(OC)ccc3N(C[C@@H]3CCCN3)C(=O)[C@@H]2O)cc1 | 370 nM | 33% | 23% | 32% | – | –
COc1ccc([C@@H]2Sc3cc(OC)ccc3N(C[C@@H]3CCCN3)C(=O)[C@@H]2OC(C)=O)cc1 | 120 nM | 39% | 37% | 42% | 3% | 7%
COc1ccc(C2Sc3cc(OC)ccc3N(CCN(C)C)C(=O)C2OC(C)=O)cc1 (racemic) | 130 nM | 21% | 19% | 34% | – | –
COc1ccc([C@@H]2Sc3ccccc3N(C[C@@H]3CCCN3)C(=O)[C@@H]2OC(C)=O)cc1 | 340 nM | 8% | 10% | 18% | 32% | 57%
COc1ccc(C2Cc3c(Cl)cccc3N(CCN(C)C)C(=O)C2OC(C)=O)cc1 (racemic) | – | – | – | 10% | – | –
COc1ccc([C@@H]2Cc3cc(OC)ccc3N(C[C@@H]3CCCN3)C(=O)[C@@H]2O)cc1 | 1120 nM | 19% | 18% | 18% | – | –
COc1ccc(C2Cc3cc(C(F)(F)F)ccc3N(CCN(C)C)C(=O)C2OC(C)=O)cc1 (stereo unspecified) | 1900 nM | – | – | – | – | –
COc1ccc([C@@H]2Sc3ccccc3N(C[C@@H]3CCCN3)C(=O)[C@@H]2O)cc1 | 1320 nM | 10% | 9% | 10% | – | –
COc1ccc([C@@H]2Cc3cc(Cl)ccc3N(CCN(C)C)C(=O)[C@@H]2OC(C)=O)cc1 | – | 12% | 12% | 12% | – | –
COc1ccc([C@@H]2Cc3ccccc3N(CCN(C)C)C(=O)[C@@H]2OC(C)=O)cc1 | 2990 nM | – | 13% | – | 18% | 53%
COc1ccc([C@@H]2Cc3c(Cl)cccc3N(C[C@@H]3CCCN3)C(=O)[C@@H]2OC(C)=O)cc1 | 120 nM | 17% | 20% | 18% | 7% | 17%
COc1ccc([C@@H]2Cc3c(cccc3C(F)(F)F)N(CCN(C)C)C(=O)[C@@H]2OC(C)=O)cc1 | – | 29% | 29% | 29% | 0% | 2%
COc1ccc([C@@H]2Sc3ccccc3N(CCN(C)C)C(=O)[C@@H]2OC(C)=O)cc1 [DILTIAZEM] | – | – | 19% | 20% | 68% | 100%
